According to patent US12466840B2, “Small molecule inhibitors of KRAS proteins” (Merck Sharp & Dohme LLC, priority 2023, dated 2025):
pIC50: −log10 of the molar value. Read-outs that look alike come from different tables or passages of the source.

Experiments:
HRAS = HRAS (Homo sapiens (Human), UniProt P01112); test: SOS-catalyzed nucleotide exchange assay (GNE), HRAS-WT; assay type: biochemical; conditions: TR-FRET, 60 min preincubation
From the text: (§1) Procedure for SOS-Catalyzed Nucleotide Exchange Assay for KRAS-WT, G12C/D/V/A/R/S, G13D, Q61H, HRAS-WT, and NRAS-WT
(§2) Recombinant KRAS-G12C protein used in this assay has an additional triple mutation (C51S/C80L/C118S). Whereas KRAS-WT, G12D/V/A/S/R, G13D, Q61H, HRAS and NRAS are in context of their WT protein sequence background. Specifically, the SOS-catalyzed nucleotide exchange assay utilizes a preformed TR-FRET complex containing a specific biotinylated RAS protein (KRAS-WT, G12C/V/D/A/S/R, G13D, Q61H, HRAS-WT, NRAS-WT; described above) with Bodipy-GDP, and Terbium-streptavidin. Compounds are preincubated with this complex for 60 minutes. Subsequently, recombinant human SOS protein and unlabeled GTP are added to initiate the exchange reaction. Small molecule inhibitors stabilize the Bodipy-GDP complex whereas the untreated protein rapidly exchanges Bodipy-GDP for unlabeled GTP resulting in reduced TR-FRET signal.
(§3) To assemble the preformed TR-FRET complexes, each biotinylated RAS protein is diluted to 2 μM in an EDTA Buffer (20 mM HEPES pH 7.5, 50 mM sodium chloride, 10 mM EDTA, and 0.01% Tween) and incubated at room temperature for one hour. This mixture is then further diluted to 90 nM in an Assay Buffer (20 mM HEPES pH 7.5, 150 mM sodium chloride, 10 mM magnesium chloride, and 0.005% Tween) containing 15 nM of Terbium-Streptavidin (Invitrogen, catalog #PV3577) and 900 nM of Bodipy-GDP (Invitrogen, catalog #G22360) and incubated at room temperature for six hours. It should be noted that this preformed TR-FRET complex for each of the RAS protein were made ahead of time, aliquoted and stored at −80° C. until the day of the experiment.
(§4) Each test compound (10 mM stock in DMSO) is diluted in DMSO to make a final-10-point, 3-fold dilution and is acoustically dispensed into a 384-well assay plate (Corning, catalog #3820) using an Echo 550 (Labcyte). Each well of the assay plate receives 3 μL of a specific 3×RAS preformed TR-FRET complex and 3 μL of Assay Buffer and is incubated at room temperature for 60 minutes (preincubation time). Each well then receives 3 μL of 3× recombinant human SOS protein and GTP (Sigma, G8877) in Assay Buffer and is incubated at room temperature for 30 minutes (G13D), 60 minutes (KRAS WT/G12C/D, H/NRAS) or 90 minutes for G12A/R/S/V and Q61H. The final reaction in each well of 9 μL consists of 3 mM GTP, specific Ras and SOS proteins in the following concentrations: KRAS-G12C/SOS=3 nM/40 nM, KRAS-WT and G12D/SOS=1 nM/40 nM, KRAS-G12V/SOS=1.25 nM/160 nM, KRAS-G12A/S/SOS=1 nM/160 nM, KRAS-G12R/SOS=1 nM/320 nM, KRAS-Q61H/SOS=1 nM/320 nM, KRAS-G13D/SOS=1.25 nM/[…], HRAS-WT and NRAS-WT=1.25 nM/40 nM.
(§5) The time-resolved fluorescence resonance energy transfer (TR-FRET) signal is measured on an Envision (PerkinElmer) plate reader: Excitation filter=340 nm; emission1=495 nm; emission2=520 nm; dichroic mirror=D400/D505; delay time=[…]. The signal of each well is determined as the ratio of the emission at 520 nm to that at 495 nm. Percent effect of each well is determined after normalization to control wells containing DMSO (no effect) or a saturating concentration of inhibitor (max effect). The apparent effect as a function of compound concentration is fit to a four-parameter logistic equation.

KRAS G12S = KRAS G12S (Homo sapiens (Human), UniProt P01116, G12S); test: SOS-catalyzed nucleotide exchange assay (GNE), KRAS G12S; assay type: biochemical; conditions: TR-FRET, 60 min preincubation
From the text: as §1, §2, §3, §4, §5

[1] = test system: AsPC-1 cells (homozygous KRAS-G12D); test: Cellular phospho-ERK assay, AsPC-1 cells; assay type: cell-based; conditions: p-ERK vs. total ERK, read-out: AsPC1 pERK IC50
Procedure: Procedure for Cellular Phospho-ERK Assay in KRAS Wild Type and Mutant (G12D, G12V) Cell Lines
MKN-1 cells (JCRB JCRB0252) containing amplified wild-type KRAS, were cultured in growth medium that contains RPMI 1640-GlutaMAX™-I (ThermoFisher Scientific 61870) containing 10% heat inactivated fetal bovine serum (ThermoFisher Scientific 10091148), 1 mM sodium pyruvate and 10 mM HEPES. AsPC-1 cells (ATCC® CRL-1682™), containing homozygous KRAS-G12D activating mutation, were cultured in T150 flask in growth medium (RPMI medium 1640-GlutaMAX™-I (ThermoFisher Scientific 61870) containing 10% fetal bovine serum (ThermoFisher Scientific 10091148)). SW620 cells (ATCC® CRL-227™) containing homozygous KRAS-G12V activating mutation, were cultured in growth medium that contains RPMI 1640-GlutaMAX™-I (ThermoFisher Scientific 61870) containing 10% heat inactivated fetal bovine serum (ThermoFisher Scientific 10091148).
Cells for the assay were harvested in growth medium after TrypLE (ThermoFisher scientific 12604021) digestion and were seeded in a 384-well collagen coated cell culture plate (Corning 356702) at a density of 10,000-15,000 cells/[…]/well, and incubated at 37° C., 5% CO2 overnight. The compound (with 10 mM stock concentration) dose-response titrations were prepared [30 μM final ERK detection assay concentration and 1:3 dilutions, 10-point dose response] and appropriate amounts (270 nL) of test compounds were dispensed in a 384-well intermediate plate using an Echo 550 liquid handler. 30 μL/well of RPMI medium 1640-GlutaMAX™-I was added to the intermediate plate and the contents of the intermediate plate (10 μL/well) were then transferred to the 384-well collagen coated cell culture plate, which was incubated at 37° C., 5% CO2 for 2 h. After removal of medium from the collagen coated cell culture plate, cells were lysed in lysis buffer from Alpha SureFire® Ultra™ Multiplex p-ERK and total ERK assay kit (PerkinElmer MPSU-PTERK) containing Halt™ Protease and Phosphatase inhibitor cocktail (ThermoFisher Scientific 78446) at room temperature with constant shaking at 300 rpm for 30 minutes. The cell lysates were then transferred to an OptiPlate-384 plate (PerkinElmer 6005620), and the phosphorylation of ERK (p-ERK) and total ERK levels were detected by Alpha SureFire® Ultra™ Multiplex p-EEK kit and total ERK assay kit (PerkinElmer MPSU-PTERK) following the manufacturer's protocol. Assay plates were read on a EnVision Multimode Plate Reader (PerkinElmer), and the ratio of p-ERK vs. total ERK in each well was used as the final readout. Dose response curves were analyzed using a 4-parameter logistic model to calculate IC50 values using Spotfire software.

KRAS Q61H = KRAS Q61H (Homo sapiens (Human), UniProt P01116, Q61H); test: SOS-catalyzed nucleotide exchange assay (GNE), KRAS Q61H; assay type: biochemical; conditions: TR-FRET, 60 min preincubation
From the text: as §1, §2, §3, §4, §5

KRAS G12S, sequence (P01116 other isoform, or with tags, fused parts or gaps G12S (already in the parent)): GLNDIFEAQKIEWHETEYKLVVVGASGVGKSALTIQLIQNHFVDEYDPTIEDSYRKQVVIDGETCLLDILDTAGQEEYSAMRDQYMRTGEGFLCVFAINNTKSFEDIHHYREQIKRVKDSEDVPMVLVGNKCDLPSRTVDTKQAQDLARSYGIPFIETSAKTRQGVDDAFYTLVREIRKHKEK
HRAS, sequence (P01112 other isoform, or with tags, fused parts or gaps): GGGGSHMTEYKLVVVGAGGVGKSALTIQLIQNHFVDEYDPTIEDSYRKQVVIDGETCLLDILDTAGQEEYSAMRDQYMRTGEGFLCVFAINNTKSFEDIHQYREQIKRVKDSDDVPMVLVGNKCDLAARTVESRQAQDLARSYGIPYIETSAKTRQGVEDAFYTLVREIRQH
KRAS Q61H, sequence (P01116 other isoform, or with tags, fused parts or gaps Q61H (already in the parent)): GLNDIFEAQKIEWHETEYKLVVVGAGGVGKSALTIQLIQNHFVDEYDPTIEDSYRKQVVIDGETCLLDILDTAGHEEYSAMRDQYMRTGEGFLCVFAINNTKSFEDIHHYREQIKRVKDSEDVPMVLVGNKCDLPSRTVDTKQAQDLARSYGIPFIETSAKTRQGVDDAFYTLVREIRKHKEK

pIC50 ([1]; Homo sapiens, ASPC1, 2 h)	SMILES	pIC50 (HRAS)	pIC50 (KRAS G12S)	pIC50 ([1]; 2 h)	pIC50 (KRAS Q61H)
7.82	Fc1c(-c2c(C3CC3)c(Cl)cc3[nH]ncc23)nc2c3c(nc(OC[C@@]45CCCN4C[C@H](F)C5)nc13)N1CCCOC[C@H]1CO2 [Ex-3, (8aS)-5-(6-chloro-5-cyclopropyl-1H-indazol-4-yl)-4-fluoro-2-(((2R,7aS)-2-fluorotetrahydro-1H-pyrrolizin-7a(5H)-yl)methoxy)-8a,9,12,13-tetrahydro-8H,11H-7,10-dioxa-1,3,6,13a-tetraazanaphtho[1,8-ab]heptalene]				
8.49	F/C=C1\CN2CCC[C@@]2(COc2nc3c4c(nc(-c5c(C6(F)CC6)c(Cl)cc6[nH]ncc56)c(F)c4n2)OC[C@@H]2COCCCN32)C1 [Ex-5, (8aS)-5-(6-chloro-5-(1-fluorocyclopropyl)-1H-indazol-4-yl)-4-fluoro-2-(((S,Z)-2-(fluoromethylene)tetrahydro-1H-pyrrolizin-7a(5H)-yl)methoxy)-8a,9,12,13-tetrahydro-8H,11H-7,10-dioxa-1,3,6,13a-tetraazanaphtho[1,8-ab]heptalene]	5.33	9.11		9.01
8.02	CCc1c(F)ccc2cc3[nH]nc(C)c3c(-c3nc4c5c(nc(OC[C@@]67CCCN6C[C@H](F)C7)nc5c3F)N3CCCOC[C@H]3CO4)c12 [Ex-6, (8aS)-5-(5-ethyl-6-fluoro-3-methyl-1H-benzo[f]indazol-4-yl)-4-fluoro-2-(((2R,7aS)-2-fluorotetrahydro-1H-pyrrolizin-7a(5H)-yl)methoxy)-8a,9,12,13-tetrahydro-8H,11H-7,10-dioxa-1,3,6,13a-tetraazanaphtho[1,8-ab]heptalene]	5.26	8.92		8.74

Second part, the compound before the results:

SMILES	pIC50 ([1]; Homo sapiens, ASPC1, 2 h)	pIC50 (HRAS)	pIC50 (KRAS G12S)	pIC50 ([1]; 2 h)	pIC50 (KRAS Q61H)
F/C=C1/CN2CCC[C@@]2(COc2nc3c4c(nc(-c5c(C6CC6)c(Cl)cc6[nH]ncc56)c(F)c4n2)OC[C@@H]2COCCCN32)C1 [Ex-1, (8aS)-5-(6-chloro-5-cyclopropyl-1H-indazol-4-yl)-4-fluoro-2-(((S,Z)-2-(fluoromethylene)tetrahydro-1H-pyrrolizin-7a(5H)-yl)methoxy)-8a,9,12,13-tetrahydro-8H,11H-7,10-dioxa-1,3,6,13a-tetraazanaphtho[1,8-ab]heptalene]		< 4.96	> 9.16	8.29	8.85
CCc1c(F)ccc2cc3[nH]ncc3c(-c3nc4c5c(nc(OC[C@@]67CCCN6C[C@H](F)C7)nc5c3F)N3CCCOC[C@H]3CO4)c12 [Ex-2, (8aS)-5-(5-ethyl-6-fluoro-1H-benzo[f]indazol-4-yl)-4-fluoro-2-(((2R,7aS)-2-fluorotetrahydro-1H-pyrrolizin-7a(5H)-yl)methoxy)-8a,9,12,13-tetrahydro-8H,11H-7,10-dioxa-1,3,6,13a-tetraazanaphtho[1,8-ab]heptalene]		5.56	> 9.16	8.13	8.92
CCc1c(F)ccc2cc3[nH]ncc3c(-c3nc4c5c(nc(OC[C@@]67CCCN6C/C(=C\F)C7)nc5c3F)N3CCCOC[C@H]3CO4)c12 [Ex-4, (8aS)-5-(5-ethyl-6-fluoro-1H-benzo[f]indazol-4-yl)-4-fluoro-2-(((S,Z)-2-(fluoromethylene)tetrahydro-1H-pyrrolizin-7a(5H)-yl)methoxy)-8a,9,12,13-tetrahydro-8H,11H-7,10-dioxa-1,3,6,13a-tetraazanaphtho[1,8-ab]heptalene]	8.66	5.89	> 9.16		9.00
CCc1c(F)ccc2cc3[nH]nc(C)c3c(-c3nc4c5c(nc(OC[C@@]67CCCN6C/C(=C\F)C7)nc5c3F)N3CCCOC[C@H]3CO4)c12 [Ex-7, (8aS)-5-(5-ethyl-6-fluoro-3-methyl-1H-benzo[f]indazol-4-yl)-4-fluoro-2-(((S,Z)-2-(fluoromethylene)tetrahydro-1H-pyrrolizin-7a(5H)-yl)methoxy)-8a,9,12,13-tetrahydro-8H,11H-7,10-dioxa-1,3,6,13a-tetraazanaphtho[1,8-ab]heptalene]		5.66	8.89	8.15	8.55
